Data as given in the RepoRT retention time repository.

Test: Agilent ZORBAX 300 SB-C18, 150 × 1 mm, 3.5 µm; A: water + 0.01% heptafluorobutyric acid; B: acetonitrile + 0.01% heptafluorobutyric acid; gradient (min/%B) 0/0 100/90
Settings: stereoisomer not certain

Row | Compound | LC retention time [min]
1 | COC1N(c2ccccc2)N=C(c2ccccc2)N1c1ccccc1 (configuration not stated) | 16.8
2 | CC(C)NC(C)C | 7.12
3 | Cc1ccc2ccc3ccc(C)nc3c2n1 | 8.67
4 | NNC(=S)Nc1ccccc1 | 8.31
5 | COc1ccc(NC(=O)c2ccc3c(c2)NC(=O)CO3)cc1OC | 9.62
6 | O=C(C=Cc1ccco1)C1CC1 | 12.1
7 | c1ccc(Nc2ncnc3nc[nH]c23)cc1 | 8.8
8 | O=C1C=CC(=O)N1C1CCCCC1 | 9.58
9 | OCc1ccccc1CN1CCCC1 | 7.7
10 | O=C(O)CNC(=O)C1CCCCC1 | 8.07
11 | OC1CCCc2c1[nH]c1ccccc21 (configuration not stated) | 11.4
12 | O=C1CCNc2ccc(-c3ccccc3)cc21 | 13.1
13 | Cc1ccc2nc[nH]c2c1 | 7.74
14 | Oc1ccc(-n2cccc2)cc1 | 11.5
15 | O=C1OC(c2c[nH]c3ccccc23)c2ccccc21 (configuration not stated) | 12.4
16 | O=C(CNC(=O)c1ccco1)NN=Cc1ccco1 | 8.12
17 | O=C(NCCOc1ccccc1)Nc1cccc(NC(=O)NCCOc2ccccc2)c1 | 13.6
18 | Nc1ccc(N2CCCC2=O)cc1N1CCCC1=O | 7.63
19 | c1nc2c(ccc3[nH]cnc32)[nH]1 | 6.84
20 | O=c1[nH]c2ccccc2c(=O)n1-c1cccnc1 | 8.1
21 | Cc1ccc(-c2cc3ccccc3[nH]2)c(C)c1 | 17.6
22 | O=C(O)c1ccccc1CN1CCCC1 | 7.5
23 | C=CCNC1CCCC1 | 7.45
24 | CC1CCN(C(=O)C2CCCNC2)CC1 (configuration not stated) | 8.27
25 | Cc1n[nH]c(=O)nc1NC1CCCCC1 | 8.28

Row | Compound | LC retention time [min]
26 | Oc1ccc(-c2cccc(-c3ccc(O)cc3)n2)cc1 | 10.1
27 | NC(=O)NC1CCCCC1 | 7.79
28 | NC(=O)c1ccccc1NC(=O)Cn1cnc2ccccc2c1=O | 9.05
29 | O=c1[nH]c2ccccc2c(=O)n1CCO | 7.39
30 | O=C(NNC(=O)C1CCCCC1C(=O)O)C(c1ccccc1)c1ccccc1 (configuration not stated) | 11.8
31 | O=C1c2ccccc2C(=O)c2cc(C(=O)N3CCC(c4ccccc4)CC3)ccc21 | 17
32 | Nc1c(S(=O)(=O)O)[nH]c(=O)[nH]c1=O | 1.22
33 | c1ccc2c(c1)CCCN2 | 7.61
34 | O=C1CCC2(O)C3Cc4ccc(O)c5c4C2(CCN3CC2CC2)C1O5 (configuration not stated) | 8.38
35 | c1cncc(Cn2cccc2)c1 | 8.31
36 | Cc1ccc2nc(C)cc(C(=O)O)c2c1 | 6.16
37 | Cc1ccnc2c1ccc1cccnc12 | 8.43
38 | O=C1CCCCCN1CP(=O)(O)CCc1ccccc1 | 9
39 | Cn1c2ccccc2c2nc3ccccc3nc21 | 14.5
40 | Nc1ccc(CN2CCCC2)cc1 | 7.04
41 | S=c1[nH]ccc2ccccc12 | 9.61
42 | c1ccc(-n2c3c(c4ccccc42)CCCC3)cc1 | 21.2
43 | Nc1cccc(C2=NCCN2)c1 | 6.85
44 | Cc1cccn2cc(-c3cccs3)cc12 | 17
45 | COc1ccc2c(c1O)-c1cccc3c1C(C2)N(C)CC3 (configuration not stated) | 9.69
46 | O=C1CCNc2cc3ccccc3cc21 | 12.1
47 | NCCc1csc2c1CCCC2 | 9.41
48 | c1ccc2[nH]ncc2c1 | 9.07
49 | CC(=O)C=Cc1ccccc1 | 11.8
50 | Cc1ccc(C(=O)C=Cc2sccc2C)cc1 | 17.4

Row | Compound | LC retention time [min]
51 | c1ccc(Cn2ccc3ccccc32)cc1 | 16.8
52 | OC1CCNCC1 | 2.8
53 | CC(=O)c1cccc(NC(=O)c2ccc(C)cc2)c1 | 13
54 | Cc1ccc(-c2ccc(C(=O)O)[nH]2)cc1 | 12
55 | Cc1ccc(N)cc1N | 6.85
56 | C=CCN1CCC23CCCCC2C1Cc1ccc(O)cc13 (configuration not stated) | 9.82
57 | CC(C)(C)c1ccc(C(=O)NN=Cc2c[nH]c3ccccc23)cc1 | 14.2
58 | COC(=O)C1CCCNC1=O (configuration not stated) | 6.61
59 | Cc1cc(-c2noc(-c3ccco3)n2)c2ccccc2n1 | 13.1
60 | c1csc(-c2cnc3ccccc3n2)c1 | 14.3
61 | Nc1cccc(N2CCOCC2)c1 | 7.53
62 | Cc1cccc(C(O)(C(=O)NN(C(=O)Nc2ccccc2)c2ccccc2)c2cccc(C)c2)c1 | 16.3
63 | NC1c2ccccc2CC1O (configuration not stated) | 7.28
64 | Nc1cc(N)[nH]c(=S)n1 | 6.42
65 | Cc1ccc2c(c1)C(=O)c1cnc(C)cc1-2 | 10.3
66 | Nc1ccc2c(c1)oc1ccccc12 | 11.6
67 | COC(=O)c1cccc(C(=O)OC)n1 | 8.45
68 | NNC(=O)C(O)C(O)C(=O)NN (configuration not stated) | 1.94
69 | CN1CCC23c4c5ccc(OC6OC(C(=O)O)C(O)C(O)C6O)c4OC2C(O)C=CC3C1C5 (configuration not stated) | 6.59
70 | CN(C)CCO | 3.24
71 | CN(C)CCN(C)C | 7.04
72 | C=CCC1(C(C)C)C(=O)NC(=O)NC1=O | 9.74
73 | c1cc(N2CCCC2)ccn1 | 7.65

The remaining lines, values ahead:

Row | LC retention time [min] | Compound
74 | 2.3 | CCC(N)=O
75 | 11.5 | CCN(CC)c1ccc(C=Nc2ccccc2)c(O)c1
76 | 9.11 | NC(=O)N1CCC(CCCC2CCN(C(N)=O)CC2)CC1
77 | 8.33 | Cc1cc2cc(N)ccc2n1C
78 | 9.76 | Cc1ccsc1CNC(C)c1ccccc1 (configuration not stated)
79 | 6.48 | CCOC1COCC1N (configuration not stated)
80 | 21.3 | CC(C)(C)c1ccc(-c2nc3ccccc3s2)cc1
81 | 8.08 | NCC1CCCCC1
82 | 10.2 | CCCCCCCCN
83 | 15.1 | CCc1ccc(C2CC(=O)N(N(C)C)C3=C2C(=O)CCC3)cc1 (configuration not stated)
84 | 6.56 | NC(=O)C(N)c1ccccc1 (configuration not stated)
85 | 10.2 | CCCn1cnc2c1c(=O)n(CCCCC(C)=O)c(=O)n2C
86 | 9.7 | CC(C)CN(CC(C)C)CC(C)C
87 | 7.22 | Nc1ccc(CCc2ccncc2)cc1
88 | 11.5 | Cc1ccc(-c2ccc(CCC(=O)O)n2CC(=O)O)cc1
89 | 13 | C#CC(C)(CC)NC(=O)CCc1ccccc1 (configuration not stated)
90 | 16 | Cc1ccc(CSc2ncccn2)c(CSc2ncccn2)c1C
91 | 12 | Cc1[nH]c2ccccc2c1CCNC(=O)C1CCCN1C(=O)Nc1ccccc1 (configuration not stated)
92 | 9.36 | Cc1cccc(CN2CCN(C(=O)CC(C)C)CC2)c1
93 | 3.76 | C[n+]1cccc(C(N)=O)c1
94 | 9.56 | COc1ccc(C=NNC(N)=O)c(OC)c1
95 | 9.57 | CCCCOC(=O)CCc1n[nH]c(=O)[nH]c1=O

Row | LC retention time [min] | Compound
96 | 9.96 | CCCNC(=O)c1c[nH]c2ccccc12
97 | 8.72 | O=C(O)CCCC(=O)Nc1ccccc1
98 | 8.93 | Cc1[nH][nH]c(=O)c1CCC(=O)NN=Cc1c(C)[nH]c2ccccc12
99 | 9.31 | Cn1c(=S)[nH]c2ccccc21
100 | 12.7 | COc1ccc(-c2cc(=O)c3ccc(OC)c(OC)c3o2)cc1OC
101 | 6.62 | CC1CNC(C)CN1 (configuration not stated)
102 | 7.31 | CCOC(=O)CC1CN(C)CCN1C (configuration not stated)
103 | 6.94 | CN1CCCN(C)C1=O
104 | 10.3 | Cc1ccc(C(=O)c2ccc(C)c(N)c2)cc1N
105 | 8.94 | COc1ccc(OC)c2c(C)cc(C)nc12
106 | 9.09 | CCC(NC)c1ccccc1OC (configuration not stated)
107 | 11.7 | CCN(CC)C(=O)c1cc(NC(=O)c2ccc3c(c2)c(=O)n(C)c(=O)n3C)c(OC)c(OC)c1
108 | 11.3 | CCN(CC)CCC(O)(c1ccccc1)C1CCCCC1 (configuration not stated)
109 | 6.55 | CC(=O)NCCC1CCCCN1 (configuration not stated)
110 | 6.98 | CCCNC(=O)N1CCCC(C(N)=O)C1 (configuration not stated)
111 | 7.19 | CN(C)CCCN(C)C
112 | 6.69 | O=C(O)CCCc1ccncc1
113 | 10.1 | CCN(CC)CCNc1cccc2ccccc12
114 | 8.22 | O=C1Nc2ccccc2C1CCCO (configuration not stated)
115 | 6.68 | CCc1ccccn1
116 | 9.65 | Cc1cccc(OCC(O)CNC(C)C)c1 (configuration not stated)
117 | 7.58 | CN1C(=O)CC(CN)c2ccccc21 (configuration not stated)

Row | LC retention time [min] | Compound
118 | 5.87 | CC(C)N(C)C
119 | 11.1 | CC(CCc1ccccc1)NC(=S)Nc1cccnc1 (configuration not stated)
120 | 7.1 | CC(C)N(C)C(C)(C)C
121 | 7.05 | CCN(CC)CCCC(C)N (configuration not stated)
122 | 10.4 | Cc1ccc(-c2cnc3ccccc3[n+]2C)c(C)c1
123 | 7.45 | CC1(C)CC(NCc2ccncc2)CC(C)(C)N1
124 | 7.2 | NCCCCCCCCN
125 | 2.49 | NC1CC(CO)C(O)C1O (configuration not stated)
126 | 9.26 | CC(=O)C(C)(C)C(C)=NN=C(N)c1ccc(C)cc1
127 | 16.7 | CC(Nc1ccc2ccccc2c1)C(=O)NN=Cc1cccc2ccccc12 (configuration not stated)
128 | 9.61 | Cc1ccc(NC(=S)NC2CC(C)(C)NC(C)(C)C2)c(C)c1
129 | 9.09 | Cc1ccc(-c2nn[nH]n2)n1C
130 | 6.62 | Nc1ccccc1CO
131 | 19.5 | CCCCCCCCN(CCCCCCCC)CCCCCCCC
132 | 6.51 | CNCCN
133 | 8.93 | Cc1sc(C)c(CNCC(C)C)c1CNCC(C)C
134 | 9 | CC(=O)c1ccc2c(c1)n(C)c(=O)n2C
135 | 8.52 | COc1c(C)cccc1C(=O)NN
136 | 6.32 | CC(=O)Nc1cc(NC(C)=O)c(C)c(C(=O)O)c1
137 | 18.2 | CCc1ccc(C(c2c[nH]c3ccccc23)c2c[nH]c3ccccc23)cc1
